In PubChem BioAssay (NCI):
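How tested: cells in 96-well plates exposed to compound for 48 hours at five concentrations. TGI denotes the concentration required for complete inhibition of growth.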

Key:
Assay in all cases: NCI tumour cell line growth inhibition, 48 h
SK-MEL-5 melanoma = system: SK-MEL-5 melanoma
TK-10 renal = system: TK-10 renal
NCI-H23 lung = system: NCI-H23 lung
SR leukemia = system: SR leukemia
BT-549 breast = system: BT-549 breast
MCF7 breast = system: MCF7 breast
COLO 205 colon = system: COLO 205 colon
NCI-H460 lung = system: NCI-H460 lung
HOP-62 NSCLC = system: HOP-62 NSCLC
MALME-3M melanoma = system: MALME-3M melanoma
SNB-19 CNS = system: SNB-19 CNS
M14 melanoma = system: M14 melanoma
SK-MEL-28 melanoma = system: SK-MEL-28 melanoma
MDA-N = system: MDA-N
PC-3 prostate = system: PC-3 prostate
EKVX NSCLC = system: EKVX NSCLC
MDA-MB-231 breast = system: MDA-MB-231 breast
OVCAR-8 ovarian = system: OVCAR-8 ovarian
NCI-H226 lung = system: NCI-H226 lung
MOLT-4 leukemia = system: MOLT-4 leukemia
HT29 colon = system: HT29 colon
A498 renal = system: A498 renal
HL-60(TB) leukemia = system: HL-60(TB) leukemia
HCC-2998 colon = system: HCC-2998 colon
RPMI-8226 leukemia = system: RPMI-8226 leukemia
UACC-257 melanoma = system: UACC-257 melanoma
SW-620 colon = system: SW-620 colon
OVCAR-5 ovarian = system: OVCAR-5 ovarian
SN12C renal = system: SN12C renal
HS 578T breast = system: HS 578T breast
SK-MEL-2 melanoma = system: SK-MEL-2 melanoma
UACC-62 melanoma = system: UACC-62 melanoma
HCT-15 colon = system: HCT-15 colon
SNB-75 CNS = system: SNB-75 CNS
786-0 renal = system: 786-0 renal
UO-31 renal = system: UO-31 renal
IGROV1 ovarian = system: IGROV1 ovarian
HCT-116 colon = system: HCT-116 colon
HOP-92 NSCLC = system: HOP-92 NSCLC
RXF 393 renal = system: RXF 393 renal
KM12 colon = system: KM12 colon
K-562 leukemia = system: K-562 leukemia
ACHN renal = system: ACHN renal
U251 CNS = system: U251 CNS
A549 NSCLC = system: A549 NSCLC
OVCAR-4 ovarian = system: OVCAR-4 ovarian
CCRF-CEM leukemia = system: CCRF-CEM leukemia
MDA-MB-435 = system: MDA-MB-435
SF-268 CNS = system: SF-268 CNS
SF-539 CNS = system: SF-539 CNS
OVCAR-3 ovarian = system: OVCAR-3 ovarian
LOX IMVI melanoma = system: LOX IMVI melanoma
CAKI-1 renal = system: CAKI-1 renal
DU-145 prostate = system: DU-145 prostate
T-47D breast = system: T-47D breast
NCI/ADR-RES ovarian = system: NCI/ADR-RES ovarian
SF-295 CNS = system: SF-295 CNS
SK-OV-3 ovarian = system: SK-OV-3 ovarian
NCI-H522 lung = system: NCI-H522 lung

Measured: TGI

CCOC(=O)C1(C)CCCc2sc(N)c(C#N)c21 (stereo not given)
not listed: OVCAR-4 ovarian | CCRF-CEM leukemia | MDA-MB-435 | SF-268 CNS | SF-539 CNS | OVCAR-3 ovarian | LOX IMVI melanoma | CAKI-1 renal | DU-145 prostate | T-47D breast | NCI/ADR-RES ovarian | SF-295 CNS | SK-OV-3 ovarian | NCI-H522 lung
> 100 µM: all other assays above

OC1c2[nH]c3ccccc3c2CCN2CCCCC12 (stereo not given)
not listed: SK-MEL-5 melanoma | HS 578T breast | UO-31 renal
> 100 µM: all other assays above

COc1cc(/C=C2\CCC/C(=C\c3ccc(OC(=O)CCCCC4CCSS4)c(OC)c3)C2=O)ccc1OC(=O)CCCCC1CCSS1 (stereo not given)
not listed: SR leukemia | HCC-2998 colon | HOP-92 NSCLC | CAKI-1 renal | T-47D breast
> 100 µM: all other assays above
